Test results as given in publication PMC8413292, “Small-molecule polymerase inhibitor protects non-human primates from measles and reduces shedding” (Nature Communications, 2021).
“And” between values parts separate entries of the source, which are not always exact repeats. Equal values may be shown once.

Assays:
[1] = tested on: MV/FrankfurtMain.DEU/17.11 (genotype D8); experiment: Clinical signs (rash score) in MeV-infected squirrel monkeys; details: for animals that developed spots or mild rash in the face or inguinal region: 50 mg/kg b.i.d. 14 days
Experimental: (§1) All animal experiments were carried out in compliance with the regulations of German animal protection laws and authorized by the Regierungspräsidium Darmstadt, Germany (Dezernat V54 – Veterinärwesen und Verbraucherschutz, Hilpertstrasse 31, 64295 Darmstadt). Adult male and female squirrel monkeys (Saimiri sciureus) were obtained from BioPRIM, 31450 Baziege, or CNRS 0846 Primatologie, 13790 Rousset, France. Each experimental group was housed in a separate room, and animals of the same sex were caged together within the respective groups. For the single-dose pharmacokinetic experiment, animals were anesthetized, and the drug was given through a stomach tube at a concentration of 50 mg/kg bodyweight. Blood samples were collected after 15, 30, and 60 min, and 2, 3, 6, and 24 h. For efficacy assessment, groups of 6 animals were left untreated or treated with 50 mg/kg of ERDRP-0519 twice daily for two weeks, starting either 12 h before or 3 or 7 days after intranasal infection with 10^6 TCID50 of MV/FrankfurtMain.DEU/17.11. Clinical signs, rectal temperature, and weight were recorded daily, and throat swabs and blood samples were collected before infection and twice weekly thereafter. On day 21 post-infection, the animals were euthanized, necropsied, and samples were collected for histological analysis.

[2] = Body weight of squirrel monkeys during the efficacy study; assay type: in vivo, squirrel monkeys (Saimiri sciureus); details: all animals throughout the study
Experimental: as §1

[3] = tested on: MV/FrankfurtMain.DEU/17.11 (genotype D8); experiment: White blood cell counts from whole blood; assay type: in vivo, squirrel monkeys (Saimiri sciureus); details: for WBC Mean Diff, untreated vs. prophylactic / WBC Mean Diff, untreated vs. therapeutic (d7) / WBC Mean Diff, untreated vs. therapeutic(d3): Dunnett's multiple comparisons test; for Cells [10^3/mm^3], white blood cells / Cells/ml, white blood cells / Counted Cells (Total), white blood cells: individual animals
Experimental: White blood cell counts, viral load quantification in PBMCs, and quantification of neutralizing antibody titers were performed as follows: for white blood cell counts, blood was diluted 1:100 in 3% acetic acid and cells were counted using a Neubauer chamber. For viral load quantification in PBMCs, blood was centrifuged at 3000 rpm for 15 min and serum was frozen at −20 °C until further use. Red blood cell lysis was performed and the remaining PBMCs were counted using a Neubauer chamber. Viral titers in PBMCs were quantified in quadruplicates using limited dilution method and calculated as TCID50/10^6 PBMCs. Neutralizing antibody titers were quantified by incubating MeV with 2-fold serial dilutions of the respective serum for 20 min at room temperature in quadruplicates. Vero/hSLAM cells were added and incubated for 3 days at 37 °C. Neutralizing antibody titers are expressed as the reciprocal of the highest serum dilution showing no signs of infection. For virus titration from throat swabs, swabs were placed in 150 μl DMEM with 3% penicillin/streptomycin and the titer was quantified by limited dilution method.

In the case of `Cn1nc(C(F)(F)F)cc1C(=O)Nc1ccc(S(=O)(=O)N2CCCC[C@H]2CCN2CCOCC2)cc1` [ERDRP-0519], the “severe or generalized rash” value ([1]; all treated groups) is reported as “none of the treated animals experienced severe or generalized rash”, the “animals that developed spots or mild rash in the face or inguinal region” value ([1]; day 3 therapeutic group) is reported as “Four of six animals” and the “deaths during the study” value ([1]; day 3 therapeutic group, day 15 post-infection, authors conclude unrelated to drug or MeV) is reported as “One animal in the day 3 therapeutic group developed mild diarrhea and deceased”. For the same compound, the “animals that developed spots or mild rash in the face or inguinal region” value ([1]; day 7 therapeutic group) was “all animals”, the measles-typical clinical signs ([1]; prophylactic group, 50 mg/kg b.i.d. 14 days from 12 h prior to infection) was “remained free of measles-typical clinical signs” and the Body weight changes [2] was “negligible”. The “WBC Mean Diff, untreated vs. prophylactic” value ([3]; Row 1 (0 dpi)) was 0.14 10^3cells/mm^3, the “WBC Mean Diff, untreated vs. therapeutic (d7)” value ([3]; Row 1 (0 dpi)) was 2 10^3cells/mm^3 and the “WBC Mean Diff, untreated vs. therapeutic(d3)” value ([3]; Row 1 (0 dpi)) was 0.75 10^3cells/mm^3. For the same compound, the “WBC Mean Diff, untreated vs. prophylactic” value ([3]; Row 2 (3 dpi)) was 0.875 10^3cells/mm^3, the “WBC Mean Diff, untreated vs. therapeutic (d7)” value ([3]; Row 2 (3 dpi)) was -2.625 10^3cells/mm^3 and the “WBC Mean Diff, untreated vs. therapeutic(d3)” value ([3]; Row 2 (3 dpi)) was -1.042 10^3cells/mm^3. For the same compound, the “WBC Mean Diff, untreated vs. prophylactic” value ([3]; Row 3 (7 dpi)) was -2.333 10^3cells/mm^3, the “WBC Mean Diff, untreated vs. therapeutic (d7)” value ([3]; Row 3 (7 dpi)) was -0.3333 10^3cells/mm^3 and the “WBC Mean Diff, untreated vs. therapeutic(d3)” value ([3]; Row 3 (7 dpi)) was -1.375 10^3cells/mm^3. The “WBC Mean Diff, untreated vs. prophylactic” value ([3]; Row 4 (10 dpi)) was -1.958 10^3cells/mm^3, the “WBC Mean Diff, untreated vs. therapeutic (d7)” value ([3]; Row 4 (10 dpi)) was -0.5417 10^3cells/mm^3 and the “WBC Mean Diff, untreated vs. therapeutic(d3)” value ([3]; Row 4 (10 dpi)) was -1.167 10^3cells/mm^3. For the same compound, the “WBC Mean Diff, untreated vs. prophylactic” value ([3]; Row 5 (14 dpi)) was -1.375 10^3cells/mm^3, the “WBC Mean Diff, untreated vs. therapeutic (d7)” value ([3]; Row 5 (14 dpi)) was -0.25 10^3cells/mm^3 and the “WBC Mean Diff, untreated vs. therapeutic(d3)” value ([3]; Row 5 (14 dpi)) was -4.767 10^3cells/mm^3. The “WBC Mean Diff, untreated vs. prophylactic” value ([3]; Row 6 (17 dpi)) was -1.667 10^3cells/mm^3, the “WBC Mean Diff, untreated vs. therapeutic (d7)” value ([3]; Row 6 (17 dpi)) was -1.333 10^3cells/mm^3 and the “WBC Mean Diff, untreated vs. therapeutic(d3)” value ([3]; Row 6 (17 dpi)) was -1.533 10^3cells/mm^3. For the same compound, the “WBC Mean Diff, untreated vs. prophylactic” value ([3]; Row 7 (21 dpi)) was -1.125 10^3cells/mm^3, the “WBC Mean Diff, untreated vs. therapeutic (d7)” value ([3]; Row 7 (21 dpi)) was -1.875 10^3cells/mm^3 and the “WBC Mean Diff, untreated vs. therapeutic(d3)” value ([3]; Row 7 (21 dpi)) was -2.402 10^3cells/mm^3. For the same compound, the “leukopenia (total white blood cell counts)” value ([3]; day 3 treatment group) was “no leukopenia was observed”, the “total white blood cell counts” value ([3]; day 7 treatment group) was “a trend for lower total white blood cell counts, but this was not significant” and the “leukopenia (total white blood cell counts)” value ([3]; prophylactic group) was “no leukopenia was observed”. For the same compound, the “Cells [10^3/mm^3], white blood cells” value ([3]; prophylactic group, 0 dpi) was 7.5 10^3/mm^3 and 4.5 10^3/mm^3 and 5.5 10^3/mm^3 and 2.25 10^3/mm^3 and 10.75 10^3/mm^3, the “Cells/ml, white blood cells” value ([3]; prophylactic group, 0 dpi) was 4.50E+06 Cells/ml and 5.50E+06 Cells/ml and 2.25E+06 Cells/ml and 1.08E+07 Cells/ml and 7.50E+06 Cells/ml and the “Counted Cells (Total), white blood cells” value ([3]; prophylactic group, 0 dpi) was 30 and 18 and 22 and 9 and 43. For the same compound, the “Cells [10^3/mm^3], white blood cells” value ([3]; prophylactic group, 3 dpi) was 4.75 10^3/mm^3 (3×) and 4.25 10^3/mm^3 and 4 10^3/mm^3 and 7.25 10^3/mm^3, the “Cells/ml, white blood cells” value ([3]; prophylactic group, 3 dpi) was 4.75E+06 Cells/ml (3×) and 4.25E+06 Cells/ml and 4.00E+06 Cells/ml and 7.25E+06 Cells/ml and the “Counted Cells (Total), white blood cells” value ([3]; prophylactic group, 3 dpi) was 19 (3×) and 17 and 16 and 29. The “Cells [10^3/mm^3], white blood cells” value ([3]; prophylactic group, 7 dpi) was 6 10^3/mm^3 (2×) and 7 10^3/mm^3 and 4.75 10^3/mm^3 (2×) and 6.75 10^3/mm^3, the “Cells/ml, white blood cells” value ([3]; prophylactic group, 7 dpi) was 6.00E+06 Cells/ml (2×) and 7.00E+06 Cells/ml and 4.75E+06 Cells/ml (2×) and 6.75E+06 Cells/ml and the “Counted Cells (Total), white blood cells” value ([3]; prophylactic group, 7 dpi) was 24 (2×) and 28 and 19 (2×) and 27. The “Cells [10^3/mm^3], white blood cells” value ([3]; prophylactic group, 10 dpi) was 4.75 10^3/mm^3 (2×) and 6.5 10^3/mm^3 and 3 10^3/mm^3 and 3.75 10^3/mm^3 and 2 10^3/mm^3, the “Cells/ml, white blood cells” value ([3]; prophylactic group, 10 dpi) was 4.75E+06 Cells/ml (2×) and 6.50E+06 Cells/ml and 3.00E+06 Cells/ml and 3.75E+06 Cells/ml and 2.00E+06 Cells/ml and the “Counted Cells (Total), white blood cells” value ([3]; prophylactic group, 10 dpi) was 19 (2×) and 26 and 12 and 15 and 8. For the same compound, the “Cells [10^3/mm^3], white blood cells” value ([3]; prophylactic group, 14 dpi) was 6 10^3/mm^3 and 3 10^3/mm^3 and 5 10^3/mm^3 (2×) and 3.75 10^3/mm^3 and 2.75 10^3/mm^3, the “Cells/ml, white blood cells” value ([3]; prophylactic group, 14 dpi) was 3.00E+06 Cells/ml and 5.00E+06 Cells/ml (2×) and 3.75E+06 Cells/ml and 2.75E+06 Cells/ml and 6.00E+06 Cells/ml and the “Counted Cells (Total), white blood cells” value ([3]; prophylactic group, 14 dpi) was 24 and 12 and 20 (2×) and 15 and 11. The “Cells [10^3/mm^3], white blood cells” value ([3]; prophylactic group, 17 dpi) was 4.75 10^3/mm^3 and 5.25 10^3/mm^3 and 5.5 10^3/mm^3 and 3.25 10^3/mm^3 and 6.5 10^3/mm^3 and 2.25 10^3/mm^3, the “Cells/ml, white blood cells” value ([3]; prophylactic group, 17 dpi) was 5.25E+06 Cells/ml and 5.50E+06 Cells/ml and 3.25E+06 Cells/ml and 6.50E+06 Cells/ml and 2.25E+06 Cells/ml and 4.75E+06 Cells/ml and the “Counted Cells (Total), white blood cells” value ([3]; prophylactic group, 17 dpi) was 19 and 21 and 22 and 13 and 26 and 9. The “Cells [10^3/mm^3], white blood cells” value ([3]; prophylactic group, 21 dpi) was 5.25 10^3/mm^3 and 3.5 10^3/mm^3 and 7.75 10^3/mm^3 and 2.25 10^3/mm^3 (2×) and 5 10^3/mm^3, the “Cells/ml, white blood cells” value ([3]; prophylactic group, 21 dpi) was 3.50E+06 Cells/ml and 7.75E+06 Cells/ml and 2.25E+06 Cells/ml (2×) and 5.00E+06 Cells/ml and 5.25E+06 Cells/ml and the “Counted Cells (Total), white blood cells” value ([3]; prophylactic group, 21 dpi) was 21 and 14 and 31 and 9 (2×) and 20. The “WBC group mean (Mean 2)” value ([3]; prophylactic group, Row 1 (0 dpi)) was 6.11 10^3cells/mm^3.
